Results from ChEMBL document CHEMBL1201862, “PubChem BioAssay data set” (2004).
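Five compound concentrations were applied to cells in 96-well plates for 48 hours; endpoints were derived by simple linear interpolation of the resulting dose-response curve. At the GI50, growth is halved.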 The source made the active and inactive calls. Rule as the data show it: active = GI50 up to about 1.1 µM and inactive = higher.

Assays:
Experiment in all cases: NCI-60 cell line screen, 48 h
U-251 = system: U-251
OVCAR-8 = system: OVCAR-8
HCT-15 = system: HCT-15
RPMI-8226 = system: RPMI-8226
MDA-MB-231 = system: MDA-MB-231
KM12 = system: KM12
SK-OV-3 = system: SK-OV-3
T47D = system: T47D
HOP-62 = system: HOP-62
SK-MEL-2 = system: SK-MEL-2
LOX IMVI = system: LOX IMVI
UACC-62 = system: UACC-62
UACC-257 = system: UACC-257
SF-295 = system: SF-295
EKVX = system: EKVX
SK-MEL-28 = system: SK-MEL-28
A549 = system: A549
SF-539 = system: SF-539
SF-268 = system: SF-268
HL-60 = system: HL-60

| SMILES | GI50 (U-251) | GI50 (OVCAR-8) | GI50 (HCT-15) | GI50 (RPMI-8226) | GI50 (MDA-MB-231) | GI50 (KM12) | GI50 (SK-OV-3) | GI50 (T47D) | GI50 (HOP-62) | GI50 (SK-MEL-2) | GI50 (LOX IMVI) | GI50 (UACC-62) | GI50 (UACC-257) | GI50 (SF-295) | GI50 (EKVX) | GI50 (SK-MEL-28) | GI50 (A549) | GI50 (SF-539) | GI50 (SF-268) | GI50 (HL-60) |
| --- | --- | --- | --- | --- | --- | --- | --- | --- | --- | --- | --- | --- | --- | --- | --- | --- | --- | --- | --- | --- |
| CC1=C(C(=O)OC(C)(C)C)C(c2ccc([N+](=O)[O-])cc2)C(C(=O)OC(C)(C)C)=C(C)N1 | 21.1 µM (inactive) | 20.4 µM (inactive) | 36.5 µM | 17 µM (inactive) | 22.2 µM (inactive) | 20.7 µM (inactive) | 32.4 µM (inactive) | 14.7 µM (inactive) | 23.4 µM (inactive) | 28.6 µM (inactive) | 18.5 µM (inactive) | 16.6 µM (inactive) | 18.8 µM (inactive) | 20.2 µM (inactive) | 18.5 µM (inactive) | 20.1 µM (inactive) | 24.9 µM (inactive) | 19.8 µM (inactive) | 21.7 µM (inactive) |  |
| Cn1c(=O)c2nc(CCCCc3nc4c(=O)n(C)c(=S)n(C)c4[nH]3)[nH]c2n(C)c1=S | 57.4 µM (inactive) | > 100 µM (inactive) | > 100 µM | > 100 µM (inactive) | > 100 µM (inactive) | > 100 µM (inactive) | 45.2 µM (inactive) | > 100 µM (inactive) | 38.9 µM (inactive) | > 100 µM (inactive) | > 100 µM (inactive) | > 100 µM (inactive) | > 100 µM (inactive) | 88.1 µM (inactive) | 23.4 µM (inactive) | > 100 µM (inactive) | > 100 µM (inactive) | 40.8 µM (inactive) | > 100 µM (inactive) |  |
| CC(C)C[C@H](NC(=O)CCc1cccc2ccccc12)B(O)O | 1.7 µM (inactive) | 2.81 µM (inactive) | 1.26 µM | 0.331 µM (active) | 2.25 µM (inactive) | 1.89 µM (inactive) | 8.73 µM (inactive) | 1.25 µM (inactive) | 3.22 µM (inactive) | 1.03 µM (active) | 0.461 µM (active) | 1.3 µM (inactive) | 1.2 µM (inactive) | 1.74 µM (inactive) | 5.27 µM (inactive) | 0.716 µM (active) | 4.74 µM (inactive) | 0.333 µM (active) | 1.32 µM (inactive) |  |
| CCC1(CC)C(=O)NN(C(=O)c2ccccc2)C1=O | > 100 µM (inactive) | > 100 µM (inactive) | > 100 µM | > 100 µM (inactive) | > 100 µM (inactive) | 6.49 µM (inactive) | > 100 µM (inactive) | > 100 µM (inactive) | > 100 µM (inactive) | > 100 µM (inactive) | > 100 µM (inactive) | > 100 µM (inactive) | > 100 µM (inactive) | > 100 µM (inactive) | > 100 µM (inactive) | > 100 µM (inactive) | > 100 µM (inactive) |  | > 100 µM (inactive) | > 100 µM (inactive) |
| COc1cc(S(=O)(=O)Nc2nc(-c3ccc(/N=C/c4ccccc4O)cc3)cs2)ccc1Cl | 36.9 µM (inactive) | 38.5 µM (inactive) | 31.6 µM |  | 36.5 µM (inactive) | 53.8 µM (inactive) | 44.9 µM (inactive) | 27.4 µM (inactive) | 40.3 µM (inactive) | 34.7 µM (inactive) | 47 µM (inactive) | 23.7 µM (inactive) | 35.9 µM (inactive) | 36 µM (inactive) | 23.4 µM (inactive) | 65.2 µM (inactive) | 41.3 µM (inactive) | 39.4 µM (inactive) | 32 µM (inactive) | 35.6 µM (inactive) |
| CC(C)(C)c1ccc(-n2c3nc(=O)n(-c4ccccc4C(F)(F)F)c(=O)c-3cc3ccccc32)cc1 | 11 µM (inactive) | 19.6 µM (inactive) | 12.3 µM |  | 23.8 µM (inactive) | 16.2 µM (inactive) |  | 22.9 µM (inactive) | 18.3 µM (inactive) | 14.6 µM (inactive) | 11.9 µM (inactive) | 14.9 µM (inactive) | 19.6 µM (inactive) | 19 µM (inactive) | 18.6 µM (inactive) | 8.26 µM (inactive) | 29 µM (inactive) | 23.8 µM (inactive) | 30.5 µM (inactive) | 9.77 µM (inactive) |
| COc1cc2c(/C=C3/C(=O)Nc4ccc(O)cc43)c(Cl)n(Cc3ccccc3)c2cc1C | 0.69 µM (active) | 1.43 µM (inactive) | 1.27 µM | 0.687 µM (active) | 6 µM (inactive) | 0.265 µM (active) | 0.817 µM (active) | 4.93 µM (inactive) |  | 3.73 µM (inactive) | 0.558 µM (active) | 2.37 µM (inactive) | 0.818 µM (active) | 0.323 µM (active) | 5.62 µM (inactive) | 3.56 µM (inactive) | 0.975 µM (active) | 0.392 µM (active) | 0.678 µM (active) | 0.306 µM (active) |
